“Also recorded” adds a separate entry of the source. Positions of bridges follow the written chain, without caps; N, C: chain ends. Non-standard residues stand in square brackets, D forms with d. Residues, ends and D or L forms follow the SMILES beside them. ξ: configuration not given here. Thr(3ξ) = CC(O)[C@H](N)C(=O)O
What was measured:
[1] = test system: blood-brain barrier (BBB); assay: In vivo brain delivery of IRdye800CW-IgG mAb, NIRF quantification in brain homogenates; conditions: C57BL/6 mice
Method: The activity of each peptide in enhancing blood-brain barrier (BBB) penetration was evaluated by delivering IRdye800CW donkey anti-goat IgG mAb in C57BL/6 mice; the amounts of mAb in the brain were determined using NIRF imaging. Each group contained 3 mice per group (n=3) with a mixture of male and female mice, selected randomly for each arm of the study. The injection solution was prepared by adding 600 μL PBS into 0.5 mg lyophilized IgG mAb; then, approximately 1.5 mg lyophilized peptide was added into the mixture yielding the injectable formulation. A 100 μL solution of a mixture containing IgG mAb (21.6 nmol/kg) along with 13 μmol/kg peptide of the present technology was administered via tail vein. As a control, 100 μL of IgG mAb alone was administered via i.v. route. After the delivered molecules had been circulating for 15 min, the mice were sacrificed; then, a mixture of PBS with 0.5% Tween20 was administered for cardiac perfusion to remove the blood and […] molecules into the brain microvessels. The brain and other organs such as lung, heart, spleen, liver, and kidney were harvested and rinsed with PBS. The isolated organs were scanned with Odyssey® CLx for mAb quantification.
The brain deposition of IgG mAb was also quantified by NIRF imaging in brain homogenates. The isolated brains were mechanically homogenized in 2.0 mL of PBS. To make the standard solutions, IRDye800CW IgG mAb stock solution (70 μg/mL) was prepared; it was then diluted with various amounts of PBS to make six different mAb concentrations. To generate a calibration curve, the brain homogenate (200 μL) was aliquoted out to a 96-well plate. 10 μL of each concentration of IgG mAb was added to three different wells of blank brain homogenates. The standard spiked homogenates were at a range of 10-200 ng/mL IgG mAb in brain homogenate. The wells were scanned using the Odyssey® CLx scanner, and the signal intensities vs. concentrations of mAb per gram of brain were used to generate a calibration curve.
(§1) The BBB modulatory activities of ADTC5 and HAV6 to enhance brain delivery of IRdyeR800CW-labeled lysozyme, albumin, IgG mAb, and fibronectin were compared in C57BL/6 mice. The proteins with or without 13 μmol/kg HAV6 or ADTC5 were administered via tail vein injection. For lysozyme, the delivered doses were 21.6 and 54 nmol/kg. For albumin, IgG mAb, and fibronectin, the dose used was 21.6 nmol/kg. Fifteen minutes after IgG mAb administration with or without a peptide of the present technology, the animals were sacrificed and PBS with 0.5% Tween-20 was administered for cardiac perfusion to remove the remaining protein in the BBB microvessels. The brain and other organs such as lung, heart, spleen, liver and kidney were harvested and rinsed with PBS. Protein depositions in the brain and other organs were quantified by NIRF imaging using an Odyssey CLx NIRF scanner.
(§2) A second quantification method was done using brain homogenates. In this case, the brains were homogenized in 2.0 mL PBS by mechanical disruption and 200 μL of homogenized brain (n=8) was aliquoted to a 96-well plate followed by quantification using the Odyssey CLx scanner. The signal intensity was compared to calibration curve and normalized to brain weight and homogenate volume.

SJL/elite EAE mice = assay: Suppression of EAE relapse, clinical scores; assay type: in vivo; conditions: BDNF 5.71 nmol/kg and/or ADTC5 10 μmol/kg i.v.
Method: EAE Mouse Model: EAE disease in animals (5-8-week-old SJL/elite female mice, Charles River) was stimulated by injecting 200 μg of PLP139-151 peptide in a 0.2 mL emulsion containing equal volumes of PBS and complete Freund's adjuvant (CFA) with killed mycobacterium tuberculosis strain H37RA (Difco, Detroit, Mich.; final concentration 4 mg/mL) as described in Kobayashi, N.; Kiptoo, P.; Kobayashi, H.; Ridwan, R.; Brocke, S.; Siahaan, T. J. Prophylactic and therapeutic suppression of experimental autoimmune encephalomyelitis by a novel bifunctional peptide inhibitor. Clin Immunol 2008, 129, (1), 69-79 and Kobayashi, N.; Kobayashi, H.; Gu, L.; Malefyt, T.; Siahaan, T. J. Antigen-specific suppression of experimental autoimmune encephalomyelitis by a novel bifunctional peptide inhibitor. J Pharmacol Exp Ther 2007, 322, (2), 879-86. Briefly, […] of PLP/CFA emulsion was administered to four different regions above the shoulders and the flanks on Day 0 followed by intraperitoneal injection of 200 ng of pertussis toxin (List Biological Laboratories, Campbell, Calif.) on Days 0 and 2. Clinical scores that reflect the disease progression were determined using an 11-point scale with 0.5 increments ranging from 0 to 5; 0 being no apparent disease and 5 being moribund. On Day 21, mice were randomly separated into […]: (i) BDNF (5.7 nmol/kg)+ADTC5 (10 μmol/kg; n=7), (ii) BDNF alone (5.71 nmol/kg, n=6), (iii) ADTC5 alone (10 μmol/kg; n=5), and (iv) vehicle (n=5). All mice received 8 intravenous injections every 4 days beginning on Day 21. The mice were euthanized via CO2 inhalation on Day 55. Area under the curve (AUC) calculations were used to compare clinical scores across groups; AUC calculations were performed using the trapezoid rule from Days 21 to 55.

[2] = test system: blood-brain barrier (BBB); assay: Brain delivery of IRdye800CW-IgG mAb in SJL/elite mice, whole brain NIRF imaging; assay type: in vivo; conditions: IgG mAb 26.8 nmol/kg i.v. alone (n=4) or with ADTC5 13 μmol/kg (n=5), 15 min
Method: Brain Delivery IRdye800CW-labeled IgG mAb using ADTC5 in SJL/elite Mice. For initial evaluation of whether ADTC5 can deliver proteins into the brain, IRdye800CW donkey-anti-goat IgG mAb was administered via i.v. with and without ADTC5 peptide in 5-8-week-old SJL/elite mice. Two groups of healthy SJL/elite mice were injected with (a) a mixture of IgG mAb (26.8 nmol/kg) and ADTC5 peptide (13 μmol/kg) (n=5) and (b) IgG mAb alone (26.8 nmol/kg) (n=4). After 15 min in the systemic circulation, the mice were euthanized using CO2 inhalation followed by brain perfusion using PBS to remove the remaining protein in the BBB microvasculature. Next, the brains were isolated followed by NIRF imaging using Licor Odyssey CLx (Licor, Lincoln, Nebr.). Eight optical sections were taken at 0.5 mm increments beginning from the bottom surface of the brain to a depth of 4 mm. The optical sections were summed to yield a fluorescence intensity value per each brain.

[3] = test system: blood-brain barrier (BBB); assay: In vivo brain delivery of IRdye800CW-lysozyme (15 kDa); parameters: species or system C57BL/6 mice
Method: Preparation of Stock and Standard Curves. The stock solution for IRDye800CW protein (i.e., lysozyme, 70 μg/mL) was prepared and stored at −80° C. The stock solution was later diluted with PBS to make the required standard solutions. To produce a standard calibration curve, 200 μL of blank brain homogenates was spiked with 10 μL standard solutions of various concentrations to yield a linear range from 0.5 to 50 ng/mL. The same method was employed for the sample's quality control (QC).
as §1, §2
(§3) Brain Perfusion. After euthanasia using CO2 chamber, mice were immediately subjected to cervical dislocation followed by removal of IRdye800CW-labeled protein from the brain capillaries using perfusion solution. In this case, a solution containing PBS with 0.2% Tween-20 was transcardially perfused to remove the remaining protein molecules in the brain endothelial microvessels. After perfusion, the brain was removed from the skull and subjected to capillary depletion.

[4] = test system: blood-brain barrier (BBB); assay: In vivo brain delivery of IRdye800CW-albumin (65 kDa); conditions: IRdye800CW-albumin 21.6 nmol/kg i.v. alone or with 13 μmol/kg peptide; C57BL/6 mice
Method: as §1, §2, §3

[5] = test system: blood-brain barrier (BBB); assay: In vivo brain delivery of IRdye800CW-fibronectin (220 kDa); parameters: species or system C57BL/6 mice
Method: as §1, §2, §3

[6] = IgG mAb 21.6 nmol/kg + 13 μmol/kg peptide i.v.

## CC(=O)N[C@H]1CSSC[C@@H](C(N)=O)NC(=O)[C@H](C(C)C)NC(=O)[C@@H]2CCCN2C(=O)[C@@H]2CCCN2C(=O)[C@H](C(C)O)NC(=O)[C@H](CC(=O)O)NC1=O (some centres unmarked) [ADTC5, cyclo(1,7)acetyl-CDTPPVC-NH2] (Ac-CD[Thr(3ξ)]PPVC-NH2; disulfide 1-7)
[1]; IRdye800CW-IgG mAb 21.6 nmol/kg i.v. alone or with 13 μmol/kg peptide, 15 min circulation, n=3
  average amount of IgG mAb in the brain: 13.3±0.7 pmol/g brain
[1]; [6]
  brain delivery of IgG mAb compared to control (IgG mAb alone): significantly better than in the PBS control; also recorded: significant difference
  enhancement of mAb brain deposition relative to control: about three times that of control
SJL/elite EAE mice; 8 injections
  locomotion / paralysis observed: partial or full hind leg paralysis and full tail paralysis
SJL/elite EAE mice; 8 injections every 4 days from day 21, compared with other groups/vehicle
  EAE clinical body scores: no significant difference
[2]
  whole brain NIRF signal of IRDye800CW-IgG mAb: significantly higher signal intensity
[3]; IRdye800CW-lysozyme 54 nmol/kg i.v. alone or with 13 μmol/kg peptide, C57BL/6 mice
  amount of lysozyme in the brain: 37.8±7.1 pmol/g brain
[3]; lysozyme 21.6 nmol/kg with 13 μmol/kg peptide
  brain delivery of lysozyme compared to lysozyme alone: no significant improvement
[4]
  amount of albumin in the brain: 40.7±7.4 pmol/g brain
[5]; IRdye800CW-fibronectin 21.6 nmol/kg i.v. alone or with ADTC5 13 μmol/kg
  NIRF signal of fibronectin in brain homogenates: 35.498±3.001 ×10^3 A.U.
[5]; fibronectin 21.6 nmol/kg with ADTC5 13 μmol/kg vs fibronectin alone
  brain delivery of 220 kDa fibronectin: did not enhance

From patent US20220227815A1, “COMPOSITIONS AND METHODS USEFUL IN TREATING BRAIN DISEASES” (University of Kansas, priority 2019, published 2022)
